The source of these data is patent US20210179853A1, “DRUG THAT REACTS WITH ACROLEIN, USE THEREOF AND NOVEL COMPOUND” (RIKEN, priority 2018, published 2021).

The test system of assay [1] is acrolein that is generated from a cell. The assay can be described thus: Sensitivity comparison with conventional detection reagent: staining of normal and cancer cells. The conditions noted are these: for acrolein concentration level that can be detected: acrolein generated from a cell, suggested from FIG. 3 staining; for identification of localization and morphology of a cancer cell: at a low reagent concentration (0.25-1.5 μM, 5 minutes). In kind it is cell-based, human. The method, then: Respective detection sensitivities of a detection reagent (TAMRA-PhN3) represented by Formula below and the compound 7 (TAMRA-di-iPr-PhN3) prepared in Example 1 were compared. Cells illustrated in FIG. 3 (for description of cell strains, see also Reference Example 1) were each immersed in an aqueous solution, containing the detection reagent at a concentration of 0.25 μM, 0.75 μM, or 1.5 μM, for 5 minutes so as to be stained.

Another assay concerns acrolein. The assay can be described thus: Selective detection of acrolein: fluorescence staining of 11 normal and cancer cell lines. In kind it is cell-based, human. The conditions noted are these: 2.5-22.5 μM, 30 minutes at room temperature, with a higher concentration; FIG. 1. The method, then: The following 11 cell lines were seeded in 96 wells (4×10^4 cells/well) and left to stand for 24 hours before treatment so that the cell lines were adhered to the wells.
Normal cell: normal human diploid fibroblast (TIG3), normal human umbilical vein endothelial cell (HUVEC), normal human mammary gland cell (MCF10A)
Cancer cell: SKBR3 (human breast cancer cell), MDA-MB-231 (human breast cancer cell), BxPC3 (human pancreatic cancer cell), HT29 (human colonic cancer cell), MCF7 (human breast cancer cell), A549 (human lung cancer cell), HeLaS3 (human cervical cancer cell), PC3 (human prostatic cancer cell)
The cells were treated by adding, to media, 100 μL of TAMRA-PhN3 solutions (2.5 μM, 7.5 μM, 12.5 μM, 17.5 μM, 22.5 μM) described in Non-patent Literature 1 and Example 2. Then, the cells were incubated at room temperature for 30 minutes. The cells were fixed by paraformaldehyde, and fluorescence was recorded with use of Spectra Max M2e (Molecular Devices, LLC.).
In FIG. 1, the vertical axis represents a relative fluorescence intensity (arbitrary unit), and the horizontal axis represents a result of staining (fluorescence) of each normal or cancer cell.

Assay [2] concerns invasive ductal carcinoma-positive, ductal carcinoma in situ-positive and cancer-negative tissue. The assay is described as follows: Staining of cancer tissue in a living tissue state. In kind it is cell-based. The settings on record: 5, 10, 20 μM, 5 minutes at room temperature; FIG. 2. On the procedure: An invasive ductal carcinoma-positive tissue (IDC-positive), a ductal carcinoma in situ-positive tissue (DCIS-positive), and a cancer-negative tissue (Cancer-negative) were each immersed in a TAMRA-PhN3 solution (5 μM, 10 μM, 20 μM). These tissues were incubated at room temperature for 5 minutes. The tissues were each stained in a living tissue state. […] Note that cell nuclei are stained with DAPI.
In FIG. 2, “Eyesight” indicates a photograph of each tissue that has been stained, and “Microscopy (×1)”, “Microscopy (×200)”, and “Microscopy (×400)” each indicate results of observations carried out with use of microscopes having respective magnifications of 1 time, 200 times, and 400 times.

For the molecule `CN(C)c1ccc2c(-c3ccc(C(=O)NCc4ccc(N=[N+]=[N-])cc4)cc3C(=O)[O-])c3ccc(=[N+](C)C)cc-3oc2c1` [TAMRA-PhN3], in assay [1], the “acrolein concentration level that can be detected” value is reported as “nM-level”; the “identification of localization and morphology of a cancer cell” value was “cannot be identified”. For the same molecule, the “reaction product with acrolein (relative fluorescence intensity)” value in the assay with acrolein is on record as “increase in reaction product (fluorescence intensity)”. Besides, in assay [2], the “observation of localization and morphology of a cancer cell in a living tissue” value was “possible to observe localization and morphology of a cancer cell in detail in a living tissue”.
As for `CC(C)c1cc(CNC(=O)c2ccc(-c3c4ccc(=[N+](C)C)cc-4oc4cc(N(C)C)ccc34)c(C(=O)[O-])c2)cc(C(C)C)c1N=[N+]=[N-]` [compound 7, 5-carboxymethylrhodamine-diisopropylphenylazide], in assay [1], the “acrolein concentration level that can be detected” value was “pM level”; the “identification of localization and morphology of a cancer cell” value is “possible to identify localization and morphology of a cancer cell”. Moreover, the “detection sensitivity relative to TAMRA-PhN3” value in assay [1] (cells immersed in aqueous solution of reagent at 0.25, 0.75 or 1.5 μM for 5 minutes, FIG. 3) is reported as “not less than 100 times”.
